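These data come from cells grown in 96-well plates and exposed to compound for 48 hours at five concentrations. GI50 is the concentration that inhibits growth by half. TGI: concentration producing complete growth inhibition.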
Key:
Assay in all cases: DTP human tumour cell line panel, 48 h
ACHN renal = test system: ACHN renal
EKVX NSCLC = test system: EKVX NSCLC
SK-MEL-28 melanoma = test system: SK-MEL-28 melanoma
RPMI-8226 leukemia = test system: RPMI-8226 leukemia
SK-MEL-5 melanoma = test system: SK-MEL-5 melanoma
U251 CNS = test system: U251 CNS
SW-620 colon = test system: SW-620 colon

Cc1ccc([N+](=O)[O-])cc1NC(=O)c1cccc([N+](=O)[O-])c1O
TGI (ACHN renal): 95.9 µM
TGI (EKVX NSCLC): 72 µM
TGI (SK-MEL-28 melanoma): 51.2 µM
TGI (RPMI-8226 leukemia): 68.3 µM
TGI (SK-MEL-5 melanoma): 28.7 µM
TGI (U251 CNS): > 100 µM
TGI (SW-620 colon): > 100 µM

Fc1ccccc1C1SCc2nc3ccccc3n21 (stereo not drawn)
TGI (ACHN renal): > 100 µM
TGI (EKVX NSCLC): > 100 µM
TGI (SK-MEL-28 melanoma): > 100 µM
TGI (RPMI-8226 leukemia): > 100 µM
TGI (SK-MEL-5 melanoma): 42.9 µM
TGI (SW-620 colon): > 100 µM

NCCN.NCCN.O=C([O-])CCl.O=C([O-])CCl.[Co+3].[O-][Cl+3]([O-])([O-])[O-]
GI50 (ACHN renal): > 100 µM
TGI (ACHN renal): > 100 µM
GI50 (EKVX NSCLC): > 100 µM
TGI (EKVX NSCLC): > 100 µM
GI50 (SK-MEL-28 melanoma): > 100 µM
TGI (SK-MEL-28 melanoma): > 100 µM
GI50 (RPMI-8226 leukemia): > 100 µM
TGI (RPMI-8226 leukemia): > 100 µM
GI50 (SK-MEL-5 melanoma): > 100 µM
TGI (SK-MEL-5 melanoma): > 100 µM
GI50 (U251 CNS): > 100 µM
TGI (U251 CNS): > 100 µM
GI50 (SW-620 colon): > 100 µM
TGI (SW-620 colon): > 100 µM

COc1ccc(S(=O)(=O)N/N=C/c2cc(I)cc([N+](=O)[O-])c2O)cc1OC
TGI (ACHN renal): > 100 µM
TGI (EKVX NSCLC): > 100 µM
TGI (RPMI-8226 leukemia): 65.1 µM
TGI (SK-MEL-5 melanoma): 38.3 µM
TGI (U251 CNS): > 100 µM
TGI (SW-620 colon): > 100 µM

COc1ccc(CC(=O)NCCc2ccc(OC)c(OC)c2)cc1Br
TGI (ACHN renal): > 100 µM
TGI (EKVX NSCLC): > 100 µM
TGI (SK-MEL-28 melanoma): > 100 µM
TGI (U251 CNS): > 100 µM
TGI (SW-620 colon): > 100 µM

Cc1cc(NS(=O)(=O)c2ccc(NC(=O)c3ccc(Cl)c4c(Nc5ccc(S(=O)(=O)N=C(N)N)cc5)c5ccccc5nc34)cc2)no1
TGI (ACHN renal): > 100 µM
TGI (EKVX NSCLC): > 100 µM
TGI (SK-MEL-28 melanoma): > 100 µM
TGI (RPMI-8226 leukemia): > 100 µM
TGI (U251 CNS): 38.9 µM

CN1CC[C@]2(C)c3cc(O)ccc3CC3CCCC1C32C (stereo partly drawn)
TGI (ACHN renal): > 100 µM
TGI (EKVX NSCLC): > 100 µM
TGI (SK-MEL-28 melanoma): > 100 µM
TGI (RPMI-8226 leukemia): > 100 µM
TGI (SK-MEL-5 melanoma): > 100 µM
TGI (U251 CNS): > 100 µM
TGI (SW-620 colon): > 100 µM

COc1cc(C(O)C(=O)c2nc3ccc([N+](=O)[O-])cc3[nH]c2=O)ccc1O (stereo not drawn)
TGI (ACHN renal): > 100 µM
TGI (EKVX NSCLC): > 100 µM
TGI (SK-MEL-28 melanoma): > 100 µM
TGI (RPMI-8226 leukemia): > 100 µM
TGI (SK-MEL-5 melanoma): > 100 µM
TGI (U251 CNS): > 100 µM
TGI (SW-620 colon): > 100 µM

CC(C)(CN1CCCCC1)C(=O)/C=C/c1ccc(Cl)cc1
TGI (ACHN renal): 17.2 µM
TGI (EKVX NSCLC): 10 µM
TGI (SK-MEL-28 melanoma): 22.6 µM
TGI (RPMI-8226 leukemia): 10.1 µM
TGI (SK-MEL-5 melanoma): 15.1 µM
TGI (U251 CNS): 11.7 µM
TGI (SW-620 colon): 10.8 µM

Cc1c(C(=O)CC(=O)C(=O)Nc2ccc(Cl)cc2)[n+](=O)c2ccccc2n1[O-]
TGI (ACHN renal): > 100 µM
TGI (EKVX NSCLC): > 100 µM
TGI (SK-MEL-28 melanoma): > 100 µM
TGI (RPMI-8226 leukemia): > 100 µM
TGI (SK-MEL-5 melanoma): > 100 µM
TGI (U251 CNS): > 100 µM
TGI (SW-620 colon): > 100 µM

C/C=C1/CCC2c3[nH]c4ccccc4c3CCN2C1 (stereo not drawn)
TGI (ACHN renal): > 100 µM
TGI (EKVX NSCLC): > 100 µM
TGI (SK-MEL-28 melanoma): > 100 µM
TGI (SK-MEL-5 melanoma): > 100 µM
TGI (U251 CNS): > 100 µM
TGI (SW-620 colon): > 100 µM

C=C1C(=O)OC2C=C(CCC(C)=O)C(C)C(OC(C)=O)CC12 (stereo not drawn)
TGI (ACHN renal): 19.7 µM
TGI (EKVX NSCLC): 26 µM
TGI (SK-MEL-28 melanoma): 20.8 µM
TGI (RPMI-8226 leukemia): 24 µM
TGI (U251 CNS): 31.1 µM
TGI (SW-620 colon): 1.22 µM

O=C(O)CCC(NC(=O)c1ccccc1)C(=O)O (stereo not drawn)
TGI (ACHN renal): > 100 µM
TGI (EKVX NSCLC): > 100 µM
TGI (SK-MEL-28 melanoma): > 100 µM
TGI (RPMI-8226 leukemia): > 100 µM
TGI (SK-MEL-5 melanoma): > 100 µM
TGI (U251 CNS): > 100 µM
TGI (SW-620 colon): > 100 µM

O=C1CCCC(=O)N1CCc1c[nH]c2ccccc12
TGI (ACHN renal): > 100 µM
TGI (EKVX NSCLC): > 100 µM
TGI (SK-MEL-28 melanoma): > 100 µM
TGI (SK-MEL-5 melanoma): > 100 µM
TGI (U251 CNS): > 100 µM
TGI (SW-620 colon): > 100 µM

c1ccc2cc3[s+]snc3cc2c1
TGI (ACHN renal): > 100 µM
TGI (EKVX NSCLC): > 100 µM
TGI (SK-MEL-28 melanoma): > 100 µM
TGI (SK-MEL-5 melanoma): > 100 µM
TGI (U251 CNS): > 100 µM
TGI (SW-620 colon): > 100 µM

CN(C)CCNC(=O)c1cccc2[nH]c(-c3cccnc3)nc12
TGI (ACHN renal): 37 µM
TGI (EKVX NSCLC): 56.5 µM
TGI (SK-MEL-28 melanoma): 83.8 µM
TGI (SK-MEL-5 melanoma): 30.8 µM
TGI (U251 CNS): 74.7 µM
TGI (SW-620 colon): 42.1 µM

CCCC/C=C1\CCC(C)(CN(C)C)C1=O (stereo not drawn)
TGI (ACHN renal): > 100 µM
TGI (EKVX NSCLC): > 100 µM
TGI (SK-MEL-28 melanoma): > 100 µM
TGI (SK-MEL-5 melanoma): > 100 µM
TGI (U251 CNS): > 100 µM
TGI (SW-620 colon): > 100 µM

O=C(NCCCCCCNC(=O)OCCSCCn1cc(C(=O)NC(=O)OCc2ccccc2)c(=O)[nH]c1=O)OCCSCCn1cc(C(=O)NC(=O)OCc2ccccc2)c(=O)[nH]c1=O
TGI (ACHN renal): > 100 µM
TGI (EKVX NSCLC): > 100 µM
TGI (RPMI-8226 leukemia): > 100 µM
TGI (SK-MEL-5 melanoma): > 100 µM
TGI (U251 CNS): > 100 µM
TGI (SW-620 colon): > 100 µM

O=C(O)CCSC(=O)Nc1ccccc1F
TGI (ACHN renal): > 100 µM
TGI (EKVX NSCLC): > 100 µM
TGI (SK-MEL-28 melanoma): > 100 µM
TGI (RPMI-8226 leukemia): > 100 µM
TGI (U251 CNS): > 100 µM
TGI (SW-620 colon): > 100 µM

O=C1C2C=CC(C2)C(c2ccc(O)cc2)N1O (stereo not drawn)
TGI (ACHN renal): > 100 µM
TGI (EKVX NSCLC): > 100 µM
TGI (SK-MEL-28 melanoma): > 100 µM
TGI (RPMI-8226 leukemia): > 100 µM
TGI (SK-MEL-5 melanoma): > 100 µM
TGI (U251 CNS): > 100 µM
TGI (SW-620 colon): > 100 µM

Cc1ccc(NC(=O)C(=O)CC(=O)c2c(C)n([O-])c3ccccc3[n+]2=O)cc1
TGI (ACHN renal): > 100 µM
TGI (EKVX NSCLC): 40.9 µM
TGI (SK-MEL-28 melanoma): > 100 µM
TGI (RPMI-8226 leukemia): 58.6 µM
TGI (SK-MEL-5 melanoma): 78.2 µM
TGI (U251 CNS): 92.3 µM
TGI (SW-620 colon): > 100 µM

O=c1nc(NC(c2ccccc2)(c2ccccc2)c2ccccc2)ccn1CCNCCn1ccc(NC(c2ccccc2)(c2ccccc2)c2ccccc2)nc1=O
TGI (ACHN renal): > 100 µM
TGI (EKVX NSCLC): 63.6 µM
TGI (SK-MEL-28 melanoma): 22.2 µM
TGI (SK-MEL-5 melanoma): 20.5 µM
TGI (U251 CNS): 18.8 µM
TGI (SW-620 colon): 31.9 µM

Cc1[nH]c(=O)n2c(C)nnc2c1C(=O)Nc1cc(Cl)cc(Cl)c1
TGI (ACHN renal): > 100 µM
TGI (EKVX NSCLC): > 100 µM
TGI (SK-MEL-28 melanoma): 60.8 µM
TGI (RPMI-8226 leukemia): > 100 µM
TGI (SK-MEL-5 melanoma): 31 µM
TGI (U251 CNS): 53.2 µM
TGI (SW-620 colon): > 100 µM

From PubChem BioAssay (NCI)
